Source: patent US20040053822A1, “Inducing cellular immune responses to mage2/3 using peptide and nucleic acid compositions” (priority 2002, published 2004)
pIC50: −log10 of the molar value.

Columns and labels:
[1] = biological target: HLA-A*6802 (Homo sapiens, UniProt P04439, A269V/D140Y/D185E/E176V/E277Q/E87N/F33Y/G231S/I121R/I166T/I218V/L180W/L300P/L318F/N151K/P208A/P217A/Q86R/R138H/R169H/S129P/T345S/V36M); assay: Purified HLA class I peptide binding assay, A*6802; conditions: binding affinity, A2 supermotif peptides and analogs
[2] = biological target: HLA-A*0201 (Homo sapiens, UniProt P04439, D140Y/D185E/D98H/E176V/E277Q/G131W/G231S/I119V/I121R/I166T/I218V/L300P/L318F/N151K/N90K/P208A/P217A/Q86G/Q94H/R138H/R169H/T345S); assay: Purified HLA class I peptide binding assay, A*0201; conditions: binding affinity, A2 supermotif peptides and analogs
[3] = biological target: HLA-A*0203 (Homo sapiens, UniProt P04439, A173T/D140Y/D185E/D98H/E277Q/G131W/G231S/I119V/I121R/I166T/I218V/L180W/L300P/L318F/N151K/N90K/P208A/P217A/Q86G/Q94H/R138H/R169H/T345S); assay: Purified HLA class I peptide binding assay, A*0203; conditions: binding affinity, A2 supermotif peptides and analogs
[4] = biological target: HLA-A*0202 (Homo sapiens, UniProt P04439, D140Y/D185E/D98H/E176V/E277Q/G131W/G231S/I119L/I121R/I166T/I218V/L180W/L300P/L318F/N151K/N90K/P208A/P217A/Q67R/Q86G/Q94H/R138H/R169H/T345S); assay: Purified HLA class I peptide binding assay, A*0202; conditions: binding affinity, A2 supermotif peptides and analogs
[5] = biological target: HLA-A*0206 (Homo sapiens, UniProt P04439, D140Y/D185E/D98H/E176V/E277Q/F33Y/G131W/G231S/I119V/I121R/I166T/I218V/L300P/L318F/N151K/N90K/P208A/P217A/Q86G/Q94H/R138H/R169H/T345S); assay: Purified HLA class I peptide binding assay, A*0206; conditions: binding affinity, A2 supermotif peptides and analogs
[6] = tested on: peptide-specific CTL from PBMC; assay: CTL immunogenicity of A3, B7 supermotif and A1, A24 motif peptides (methodology analogous to A2); assay type: cell-based, human; conditions: positive/tested
[7] = tested on: 0.221A2.1 cell line (peptide-loaded target); assay: Primary CTL induction from normal donor PBMC, 51Cr release on peptide-pulsed targets; assay type: cell-based, human
Protocol: (§1) The melanoma cells were treated with 100 U/ml IFNγ (Genzyme) for 48 hours at 37° C. before use as targets in the ^51Cr release and in situ IFNγ assays.
The monocytes were purified by plating 10×10^6 PBMC/well in a 6-well plate. After 2 hours at 37° C., the non-adherent cells were removed by gently shaking the plates and aspirating the supernatants. The wells were washed a total of three times with 3 ml RPMI to remove most of the non-adherent and loosely adherent cells. Three ml of complete medium containing 50 ng/ml of GM-CSF and 1,000 U/ml of IL4 were then added to each well. DC were used for CTL induction cultures following 7 days of culture.
Induction of CTL with DC and Peptide: CD8+ T-cells were isolated by positive selection with Dynal immunomagnetic beads (Dynabeads® M-450) and the detacha-bead® reagent. Typically about 200-250×10^6 PBMC were processed to obtain 24×10^6 CD8^+ T-cells (enough for a 48-well plate culture). Briefly, the PBMCs were thawed in RPMI with 30 μg/ml DNAse, washed once with PBS containing 1% human AB serum and resuspended in PBS/1% AB serum at a concentration of 20×10^6 cells/ml. The magnetic beads were washed 3 times with PBS/AB serum, added to the cells (140 μl beads/20×10^6 cells) and incubated for 1 hour at 4° C. with continuous mixing. The beads and cells were washed 4× with PBS/AB serum to remove the nonadherent cells and resuspended at 100×10^6 cells/ml (based on the original cell number) in PBS/AB serum containing 100 μ/ml detacha-bead® reagent and 30 μg/ml DNAse. The mixture is incubated for 1 hour at room temperature with continuous mixing. The beads were washed again with PBS/AB/DNAse to collect the CD8+ T-cells. The DC were collected and centrifuged at 1300 rpm for 5-7 minutes, washed once with PBS with 1% BSA, counted and pulsed with 40 μg/ml of peptide at a cell concentration of 1-2×10^6/ml in the presence of 3 μg/ml β2- microglobulin for 4 hours at 20° C. The DC were then irradiated (4,200 rads), washed 1 time with medium and counted again.
Setting up induction cultures: 0.25 ml cytokine-generated DC (@1×10^5 cells/ml) were co-cultured with 0.25 ml of CD8+ T-cells (@2×10^6 cell/ml) in each well of a 48-well plate in the presence of 10 ng/ml of IL-7. rHuman IL10 was added the next day at a final concentration of 10 ng/ml and rhuman IL2 was added 48 hours later at 10 IU/ml.
Restimulation of the induction cultures with peptide-pulsed adherent cells: Seven and fourteen days after the primary induction the cells were restimulated with peptide-pulsed adherent cells. The PBMCS were thawed and washed twice with RPMI and DNAse. The cells were resuspended at 5×10^6 cells/ml and irradiated at ˜4200 rads. The PBMCs were plated at 2×10^6 in 0.5 ml complete medium per well and incubated for 2 hours at 37° C. The plates were washed twice with RPMI by tapping the plate gently to remove the nonadherent cells and the adherent cells pulsed with 10 μg/ml of peptide in the presence of 3 μg/ml β2 microglobulin in 0.25 ml RPMI/5% AB per well for 2 hours at 37° C. Peptide solution from each well was aspirated and the wells were washed once with RPMI. Most of the media was aspirated from the induction cultures (CD8+ cells) and brought to 0.5 ml with fresh media. The cells were then transferred to the wells containing the peptide-pulsed adherent cells. Twenty four hours later rhuman IL10 was added at a final concentration of 10 ng/ml and rhuman IL2 was added the next day and again 2-3 days later at 50 IU/ml (Tsai et al., Critical Reviews in Immunology 18(l-2):65-75, 1998). Seven days later the cultures were assayed for CTL activity in a ^51Cr release assay. In some experiments the cultures were assayed for peptide-specific recognition in the in situ IFNγ ELISA at the time of the second restimulation followed by assay of endogenous recognition 7 days later. After expansion, activity was measured in both assays for a side by side comparison. […]

[8] = tested on: melanoma cell lines (624 mel and 888 mel); assay: Primary CTL induction, 51Cr release on tumor targets (endogenous recognition); assay type: cell-based, human; conditions: number of donors positive over total tested; tumor targets
Protocol: as §1
Restimulation of the induction cultures with peptide-pulsed adherent cells: Seven and fourteen days after the primary induction the cells were restimulated with peptide-pulsed adherent cells. The PBMCS were thawed and washed twice with RPMI and DNAse. The cells were resuspended at 5×10^6 cells/ml and irradiated at ˜4200 rads. The PBMCs were plated at 2×10^6 in 0.5 ml complete medium per well and incubated for 2 hours at 37° C. The plates were washed twice with RPMI by tapping the plate gently to remove the nonadherent cells and the adherent cells pulsed with 10 μg/ml of peptide in the presence of 3 μg/ml β2 microglobulin in 0.25 ml RPMI/5% AB per well for 2 hours at 37° C. Peptide solution from each well was aspirated and the wells were washed once with RPMI. Most of the media was aspirated from the induction cultures (CD8+ cells) and brought to 0.5 ml with fresh media. The cells were then transferred to the wells containing the peptide-pulsed adherent cells. Twenty four hours later rhuman IL10 was added at a final concentration of 10 ng/ml and rhuman IL2 was added the next day and again 2-3 days later at 50 IU/ml (Tsai et al., Critical Reviews in Immunology 18(l-2):65-75, 1998). Seven days later the cultures were assayed for CTL activity in a ^51Cr release assay. In some experiments the cultures were assayed for peptide-specific recognition in the in situ IFNγ ELISA at the time of the second restimulation followed by assay of endogenous recognition 7 days later. After expansion, activity was measured in both assays for a side by side comparison.
Seven days after the second restimulation, cytotoxicity was determined in a standard (5 hr) ^51Cr release assay by assaying individual wells at a single E:T. Peptide-pulsed targets were prepared by incubating the cells with 10 μg/ml peptide overnight at 37° C.
Adherent target cells were removed from culture flasks with trypsin-EDTA. Target cells were labelled with 200 μCi of ^51Cr sodium chromate (Dupont, Wilmington, Del.) for 1 hour at 37° C. […] Target cells.(100 μl) and 100 μl of effectors were plated in 96 well round-bottom plates and incubated for 5 hours at 37° C. At that time, 100 μl of supernatant were collected from each well and percent lysis was determined according to the formula: [(cpm of the test sample−cpm of the spontaneous ^51Cr release sample)/(cpm of the maximal ^51Cr release sample−cpm of the spontaneous ^51Cr release sample)]×100. Maximum and spontaneous release were determined by incubating the labelled targets with 1% Trition X-100 and media alone, respectively.
CTL Expansion. […] The cells were split if the cell concentration exceeded 1×10^6/ml and the cultures were assayed between days 13 and 15 at E:T ratios of 30, 10, 3 and 1:1 in the ^51Cr release assay or at 1×10^6/ml in the in situ IFNγ assay using the same targets as before the expansion.
The A2-supermotif cross-reactive binding peptides that were selected for further evaluation were tested in the cellular assay for the ability to induce peptide-specific CTL in normal individuals.

[9] = number of donors positive over the total number of donors tested

pIC50 [1] | pIC50 [2] | pIC50 [3] | pIC50 [4] | pIC50 [5] | SMILES | further results
6.40 | 7.70 | 8.23 | 8.22 |  | CC(C)C[C@H](NC(=O)[C@H](Cc1ccccc1)NC(=O)[C@H](Cc1c[nH]cn1)NC(=O)[C@@H](NC(=O)[C@H](CC(C)C)NC(=O)[C@H](CCC(=O)O)NC(=O)[C@H](C)NC(=O)[C@H](CC(C)C)NC(=O)[C@@H](N)CCCCN)C(C)C)C(=O)O | 
5.51 |  | 6.90 | 6.14 | 5.71 | CC[C@H](C)[C@H](NC(=O)[C@H](CC(C)C)NC(=O)[C@H](C)N)C(=O)N[C@@H](CCC(=O)O)C(=O)N[C@H](C(=O)N[C@@H](CO)C(=O)N[C@@H](Cc1ccc(O)cc1)C(=O)N[C@H](C(=O)N[C@@H](CCCCN)C(=O)N[C@H](C(=O)O)C(C)C)C(C)C)[C@@H](C)O | 
 |  |  |  |  | CC[C@H](C)[C@H](NC(=O)[C@@H](NC(=O)[C@@H](N)[C@@H](C)O)[C@@H](C)O)C(=O)N[C@@H](CC(N)=O)C(=O)N[C@@H](Cc1ccc(O)cc1)C(=O)N[C@H](C(=O)N[C@@H](CC(C)C)C(=O)N[C@@H](Cc1c[nH]c2ccccc12)C(=O)N[C@@H](CCCNC(=N)N)C(=O)O)[C@@H](C)O | CTL Tumor ([6]; CTL recognition of tumor targets): 2/5; CTL Wild-type ([6]; CTL recognition of wild-type peptide): 7/7
5.35 | 7.25 | 6.11 |  | < 5.00 | CC[C@H](C)[C@H](NC(=O)[C@H](Cc1ccc(O)cc1)NC(=O)[C@H](CC(C)C)NC(=O)[C@@H](N)Cc1c[nH]cn1)C(=O)N[C@@H](Cc1ccccc1)C(=O)N[C@@H](C)C(=O)N[C@H](C(=O)N[C@@H](CS)C(=O)N[C@@H](CC(C)C)C(=O)NCC(=O)N[C@@H](CC(C)C)C(=O)O)[C@@H](C)O | 
7.14 |  | 7.66 | 7.89 | 7.82 | CC(C)C[C@H](NC(=O)[C@H](CCC(=O)O)NC(=O)[C@H](C)NC(=O)[C@H](CC(C)C)NC(=O)[C@@H](N)CCCCN)C(=O)N[C@H](C(=O)N[C@@H](Cc1c[nH]cn1)C(=O)N[C@@H](Cc1ccccc1)C(=O)N[C@H](C(=O)O)C(C)C)C(C)C | 
< 5.00 | 6.78 | 6.76 | 6.19 |  | CC[C@H](C)[C@H](NC(=O)[C@@H](N)CCCCN)C(=O)N[C@@H](Cc1c[nH]c2ccccc12)C(=O)N[C@@H](CCC(=O)O)C(=O)N[C@@H](CCC(=O)O)C(=O)N[C@@H](CC(C)C)C(=O)N[C@@H](CO)C(=O)N[C@@H](CCSC)C(=O)N[C@@H](CC(C)C)C(=O)O | 
 |  |  |  |  | CC[C@H](C)[C@H](NC(=O)CNC(=O)[C@H](Cc1ccccc1)NC(=O)[C@@H](NC(=O)[C@@H](N)CC(C)C)C(C)C)C(=O)N[C@@H](CCC(=O)O)C(=O)N[C@H](C(=O)N[C@H](C(=O)N[C@@H](CCC(=O)O)C(=O)N[C@H](C(=O)O)C(C)C)C(C)C)C(C)C | CTL Wild-type [7, 9]: 4/4; CTL Tumor [8]: 0/3^
6.77 | 7.59 |  |  | 7.41 | CSCC[C@H](NC(=O)[C@@H](N)CCCCN)C(=O)N[C@@H](C)C(=O)N[C@@H](CCC(=O)O)C(=O)N[C@@H](CC(C)C)C(=O)N[C@H](C(=O)N[C@@H](Cc1c[nH]cn1)C(=O)N[C@@H](Cc1ccccc1)C(=O)N[C@H](C(=O)O)C(C)C)C(C)C | 
 |  |  |  |  | CC[C@H](C)[C@H](NC(=O)[C@@H](N)CCCCN)C(=O)N[C@@H](Cc1c[nH]c2ccccc12)C(=O)N[C@@H](CCC(=O)O)C(=O)N[C@@H](CCC(=O)O)C(=O)N[C@@H](CC(C)C)C(=O)N[C@@H](CO)C(=O)N[C@H](C(=O)N[C@@H](CC(C)C)C(=O)O)C(C)C | CTL Wild-type ([7]; Number of donors yielding a positive response/total tested): 3/4; CTL Wild-type [7, 9]: 3/4; CTL Tumor [8]: 0/3^
6.54 | 7.62 |  | 8.17 | 7.59 | CSCC[C@H](NC(=O)[C@@H](N)CCCCN)C(=O)N[C@@H](C)C(=O)N[C@@H](CCC(=O)O)C(=O)N[C@@H](CC(C)C)C(=O)N[C@H](C(=O)N[C@@H](Cc1c[nH]cn1)C(=O)N[C@@H](Cc1ccccc1)C(=O)N[C@@H](CC(C)C)C(=O)O)C(C)C | 
